System: B-RBD-D211A, D213A
Experiment: BRET-titration Gal1/B-RBD-D211A, D213A
Type: cell-based, human
Conditions: versus wild-type, n = 3

## Gal1: galectin-1, H-Ras nanocluster scaffold
  BRETtop, Gal1/B-RBD-D211A, D213A: significantly reduced
